We go through eight compounds from US7501424B2, “N-phenyl-2-pyrimidine-amine derivatives and process for the preparation thereof” (Il-Yang Pharm. Co., Ltd., priority 2005, dated 2009).

Holding throughout (format): cell-based
For one test, the system named is K562 cancer cell. Kind of test: Growth inhibition of K562 cancer cell (MTT). To be noted: for improved activity compared with Imatinib mesylate: K562; for IC50: Homo sapiens, K562, 48 h, K562, MTT, 2 days. The protocol: (§1) In the present experiment, the inhibitory activity of the compound of formula (1) was determined against the growth of K562 cancer cell. First, the cells were allowed to stand in RPMI (Roswell Park Memorial Institute)-1640 medium containing 10% (v/v) fetal bovine serum in an incubator of 37° C. and 5% by volume of CO2. The cancer cells (1000 cells) were transferred to a 96-well plate, and the test compound was diluted. The plate was allowed to stand under the above mentioned conditions for 2 days. After this treatment, to the cells was added 0.2% MTT (3-[4,5-dimethylthiazol-2-yl]-2,5-diphenyltetrazolium bromide) solution, and the resulting mixture was allowed to stand under the constant temperature-condition for 4 hours. The supernatant was removed to leave the resulting crystal. DMSO was added to dissolve the crystal, and the absorbance of the solution was measured at 540 nm. IC50 value was calculated using a computer system according to the following formula: (OD540(test)−OD540(blank)/OD540(control)−OD540(blank))×100

The subject of another test is CT-26 cancer cell. The experiment in a line: Growth inhibition of CT-26 cancer cell (MTT). The following applies: for improved activity compared with Imatinib mesylate: CT-26; for IC50: CT-26, MTT, 2 days. The protocol: as §1
In the present experiment, the inhibitory activity of the compounds of formula (1) was determined against the growth of CT-26 cancer cell. The test was performed according to the same procedure as Experiment 1.

For a further test, the system named is A549. Kind of test: Growth inhibition of lung cancer cell A549 (MTT). The following applies: A549, Experiment 4. The protocol: as §1
(§2) The test was performed according to the same procedure as Experiment 1.
as §2

Another test relates to KB. Kind of test: Growth inhibition of oral epithelial cancer cell KB (MTT). To be noted: Experiment 4. As to the method: as §1, §2
For a further test, the system named is Sarcoma-180. The experiment in a line: Growth inhibition of Sarcoma-180 (MTT). To be noted: Sarcoma-180, Experiment 4. As to the method: as §1, §2
A further test has as its system SK-OV-03. The experiment in a line: Growth inhibition of ovarian cancer cell SK-OV-03 (MTT). To be noted: SK-OV-03, Experiment 4. The protocol:
as §1, §2

Another test has as its system SNU-1. Kind of test: Growth inhibition of gastric cancer cell SNU-1 (MTT). To be noted: SNU-1, Experiment 4. The protocol: as §1, §2, §2
[1] abbreviates: Mus musculus, CT26, 48 h, read-out: IC50.

In brackets after ≈: the same amount, converted by molar mass. Like-named read-outs stand apart in the source and are kept apart here.

Consider `Cc1cn(-c2cc(NC(=O)c3ccc(Nc4nccc(-c5nccs5)n4)cc3)cc(C(F)(F)F)c2)cn1.Cl.Cl` [Example 30, N-[3-(4-methylimidazol-1-yl)-5-trifluoromethyl-phenyl]-4-(4-thiazol-2-yl-pyrimidin-2-ylamino)-benzamide 2 hydrochloride], for which the “improved activity compared with Imatinib mesylate” value in the test with K562 cancer cell came out at 50 times. Besides, in the test with CT-26 cancer cell, the “improved activity compared with Imatinib mesylate” value amounted to 300 times and the IC50 came to 9.4 ng/mL.
As for `Cc1ccc(C(=O)Nc2cc(-n3ccnc3C)cc(C(F)(F)F)c2)cc1Nc1nccc(-c2cnccn2)n1` [Example 9, 4-methyl-N-[3-(2-methylimidazol-1-yl)-5-trifluoromethyl-phenyl]-3-(4-pyrazin-2-yl-pyrimidin-2-ylamino)-benzamide], the values for the IC50 in the test on K562 cancer cell and with CT-26 cancer cell (setting [1]) were at most 10 ng/mL and below 10 ng/mL, respectively. For the same compound, the “improved activity compared with Imatinib mesylate” value in the test with K562 cancer cell amounted to 50 times; in the test with CT-26 cancer cell, 300 times.
As for `N.N.[Cl][Pt][Cl]` [Cisplatin, reference compound], the IC50 is 679 ng/mL in the test with A549; 0.28 ng/mL in the test on KB; below 0.1 ng/mL in the test with Sarcoma-180; 782 ng/mL in the test on SK-OV-03; 2064 ng/mL in the test on SNU-1.
Regarding `Cc1cn(-c2cc(NC(=O)c3ccc(Nc4nccc(-c5cccnc5)n4)cc3)cc(C(F)(F)F)c2)cn1.Cl.Cl` [Example 24, N-[3-(4-methylimidazol-1-yl)-5-trifluoromethyl-phenyl]-4-(4-pyridin-3-yl-pyrimidin-2-ylamino)-benzamide 2 hydrochloride], the “improved activity compared with Imatinib mesylate” value with K562 cancer cell was determined as 50 times. In addition, in the test with CT-26 cancer cell, the “improved activity compared with Imatinib mesylate” value was 300 times and the IC50 was 2.3 ng/mL.
On to `Cc1ccc(C(=O)Nc2cc(-n3ccnc3C)cc(C(F)(F)F)c2)cc1Nc1nccc(-c2nccnc2C)n1` [Example 13, 4-methyl-N-[3-(2-methylimidazol-1-yl)-5-trifluoromethyl-phenyl]-3-[4-(3-methylpyrazin-2-yl)-pyrimidin-2-ylamino]-benzamide], for which, in the test with K562 cancer cell, the midpoint of inhibition, the IC50, lay at 304 ng/mL (≈ 0.558 µM) and the “improved activity compared with Imatinib mesylate” value is recorded as “much higher activity than Imatinib mesylate”. In the test with CT-26 cancer cell (setting [1]), the IC50 stood at 3770 ng/mL (≈ 6.92 µM).
Take `Cc1cnc(NC(=O)c2ccc(C)c(Nc3nccc(-c4nccs4)n3)c2)s1` [Example 7, 4-methyl-N-(5-methylthiazol-2-yl)-3-(4-thiazol-2-yl-pyrimidin-2-ylamino)-benzamide]: the values for the IC50 with K562 cancer cell and with CT-26 cancer cell (setting [1]) were at most 10 ng/mL and below 10 ng/mL, respectively. Besides, the “improved activity compared with Imatinib mesylate” value in the test with K562 cancer cell is on record as 50 times; in the test with CT-26 cancer cell, 300 times.
With `Cc1ccc(C(=O)Nc2cc(-n3ccnc3C)cc(C(F)(F)F)c2)cc1Nc1nccc(-c2nccs2)n1` [Example 6, 4-methyl-N-[3-(2-methylimidazol-1-yl)-5-trifluoromethyl-phenyl]-3-(4-thiazol-2-yl-pyrimidin-2-ylamino)-benzamide], the “improved activity compared with Imatinib mesylate” value was determined as 50 times in the test on K562 cancer cell and 300 times in the test on CT-26 cancer cell. Moreover, in the test with CT-26 cancer cell (setting [1]), the IC50 is below 10 ng/mL.
Consider `Cc1cn(-c2cc(NC(=O)c3ccc(C)c(Nc4nccc(-c5nccnc5C)n4)c3)cc(C(F)(F)F)c2)cn1` [Example 12, 4-methyl-N-[3-(4-methylimidazol-1-yl)-5-trifluoromethyl-phenyl]-3-[4-(3-methylpyrazin-2-yl)-pyrimidin-2-ylamino]-benzamide], for which, in the test with K562 cancer cell, 210 ng/mL (≈ 0.386 µM) corresponded to half-maximal inhibition (IC50) and the “improved activity compared with Imatinib mesylate” value was “much higher activity than Imatinib mesylate”. The IC50 in the test with CT-26 cancer cell (setting [1]) was determined as 2930 ng/mL (≈ 5.38 µM).
